Data on three molecules can be found in US6989153B2, “Radiation sensitive liposomes” (Varian Medical Systems Technologies, Inc., priority 1999, dated 2006).

This data set in a line: Ionizing radiation initiated polymerization of liposomes, by loss of monomer absorption intensity. The format is physicochemical. Particulars: for dependence of extent of polymerization on continuous or discontinuous exposure: ionizing radiation; for effect of dissolved oxygen on ionizing radiation initiated polymerization: liposomes in aqueous buffer, maximum dose rate 2.1×10^4 rad/h. The text has this: The relative sensitivity to ionizing radiation of liposomes composed of either bis-SorbPC (1; FIG. 5), bis-DenPC (2; FIG. 5), or bis-AcrylPC (3; FIG. 5) was investigated. These polymerizable colipids have different reactivities that control the initial rate of polymerization, extent of polymerization, and inhibition by oxygen. The interaction of ionizing radiation with water produces radical species that can initiate radical chain polymerizations.
The rate of the ionizing radiation initiated polymerization (Rp) of liposomes composed of either bis-SorbPC, bis-DenPC, or bis-AcrylPC was determined by the loss of monomer absorption intensity. The maximum dose rate at the liposome samples was 2.1×10^4 rad/h. This intensity could be attenuated if desired. […] Radical polymerization of acryloyl functionalities are very sensitive to oxygen due to the high energy of the propagating species. In contrast, if the bis-AcrylPC liposome suspension was purged of oxygen the monomer could be converted to polymer in a few minutes. The Rp for bis-SorbPC liposomes in water (with or without oxygen present) was about twice that of bis-DenPC liposomes. The liposomes composed of bis-AcrylPC (without oxygen) were about 10 times more reactive than bis-SorbPC liposomes.
The usual experimental protocol for radiation exposure of the liposome samples utilized discontinuous exposure because samples for all the time points were exposed together. […] In some experiments the samples were exposed continuously. The percent loss of monomer depended on the total exposure, but was insensitive to whether the radiation was delivered in a continuous or punctuated manner.

For bis-AcrylPC, the “dependence of extent of polymerization on continuous or discontinuous exposure” value was “independent of whether the exposure to ionizing radiation was continuous or discontinuous” and the “effect of dissolved oxygen on ionizing radiation initiated polymerization” value (shortened to “effect of dissolved oxygen”) is on record as “inhibited by oxygen”. Further, the “time for conversion of monomer to polymer” value (liposome suspension purged of oxygen) is reported as “a few minutes”. Moreover, the “change in monomer concentration” value (oxygen present, after 120 minutes of irradiation at the maximum dose rate) is on record as “no change in the monomer concentration”. Further, the “reactivity relative to bis-SorbPC liposomes” value (without oxygen) is given as “about 10 times”.

As for `CC=CC=CC(=O)OCCCCCCCCCC(=O)OC[C@H](COP(=O)([O-])OCC[N+](C)(C)C)OC(=O)CCCCCCCCCOC(=O)C=CC=CC` [bis-SorbPC], the “dependence of extent of polymerization on continuous or discontinuous exposure” value is on record as “independent of whether the exposure to ionizing radiation was continuous or discontinuous” and the “effect of dissolved oxygen” value is recorded as “relatively insensitive to the presence of dissolved oxygen”. For the same molecule, the “rate of polymerization (Rp) relative to bis-DenPC liposomes” value (liposomes in water, with or without oxygen present) is reported as “about twice”.

Turning to bis-DenPC, the “effect of dissolved oxygen” value is reported as “relatively insensitive to the presence of dissolved oxygen”.
